Consider 24 compounds from patent publication US6251903A, “Alkyl, azido, alkoxy, and fluoro-substituted and fused quinoxalinediones and the use thereof as glycine receptor antagonist” (priority 2000, dated 2001).

Read-outs that look alike come from different tables or passages of the source.

One data set concerns neurons. As to conditions: literature; cited from earlier work.
Data set [1] has as its system glycine binding site of the NMDA receptor. As to conditions: literature; cited from earlier work.
The conditions of data set [2]: cited from earlier work.
Another data set has as its system animals. As to conditions: literature; cited from earlier work.
In data set [3] the target is T1, glycine binding site of the NMDA receptor (Rattus norvegicus, UniProt P35439).
T1 construct: rat brain membrane homogenates that are enriched in NMDA receptors; tissue Pel-Freez, Rogers, Arkansas (frozen rat brains); host or cells: rat brain membrane homogenate
The data set can be described thus: 1 μM glycine-stimulated [3H]-MK801 binding assay, brain membrane homogenates. As to the method: This assay takes advantage of the dependence of the binding of [^3 H]-MK801 to the PCP receptor inside the pore of the NMDA channel on the presence of both glutamate and glycine. In the absence of glycine, but in the presence of glutamate, [^3 H]-MK801 cannot bind effectively to the PCP receptor because the NMDA channel remains closed and access of [^3 H]-MK801 to the PCP receptor inside the closed channel pore is severely restted.
The assay is conducted using rat brain membrane homogenates that are enriched in NMDA receptors. The membranes are prepared as follows. Frozen rat brains (obtained from Pel-Freez, Rogers, Arkansas) are homogenized in 15 volumes (w/v) of ice cold 0.32 M sucrose. The homogenate is spun at 1,000×g for ten minutes. The supernatant is collected and spun for 20 minutes at 44,000×g. The pellet is suspended in 15 volumes of water (relative to original brain weight). The homogenate is again spun at 44,000×g for twenty minutes. The pellet is resuspended in 5 volumes of water and the suspension is freeze-thawed 2 times. After the final thaw cycle, the suspension is brought to 15 volumes with water and spun at 44,000×g for twenty minutes. The pellet is resuspended in 5 volumes of ice-cold 10 mM HEPES, and is titrated to pH 7.4 with KOH containing 0.04% Triton X-100. Membranes are incubated with the Triton/HEPES buffer at 37° C. for 15 minutes. The volume is then brought to 15 with ice-cold 10 mM HEPES, pH 7.4, and spun/washed three times with spins of 44,000×g between washes. The final pellet is suspended in three volumes of 50 mM HEPES, pH 7.4, and the protein concentration is determined with a standard dye-binding protein assay (Bio-Rad, Richmond, Calif.). The suspension is stored at -80° C. until used. Only HPLC grade water is used for all buffers and suspensions/washings. The extensive washings are necessary to remove as much endogenous glycine from the membrane preparation as possible.
Nonspecific binding is defined as the difference in binding that occurs in the absence or presence of-PCP (final concentration: 100 μM). To determine the effect of 1 μM glycine on the binding of [^3 H]-MK801, bound radioactivity in the presence of 10 μM glutamate alone (final concentration) is subtracted from the bound radioactivity in the presence of both 10 μM glutamate and 1 μM glycine (final concentration). A 500 nM concentration (final) of 5,7-dichlorokynurenic (DCK) acid is added to all assay tubes. This concentration of the glycine antagonist DCK "buffers" most of the residual endogenous glycine that is not removed by the extensive washing steps that are carried out during the membrane preparation procedure.
The assays are incubated for 120 minutes at room temperature after which time the membrane-bound radioactivity is isolated from the free radioactivity by vacuum filtration through Whatman glass fiber filters that had been pretreated with 0.3% polyethyleneimine. Filtration is accomplished using a Brandel,48 well cell harvester. Filtered membranes are washed three times with 3 mL each of ice cold buffer. Filters are transferred to scintillation vials and 5 mL of scintillation cocktail is added. The vials are shaken overnight and the radioactivity is counted by liquid scintillation spectroscopy. The assays are done in triplicate and all experiments are conducted at least three times.

The next data set deals with glycine binding site (Rattus norvegicus, UniProt P35439). The data set is described as follows: affinity for the glycine binding site / glycine/NMDA receptor (Ki; method not stated). As to conditions: for times less active than 6,7-dichloro-5-nitro-1,4-dihydroquinoxaline-2,3-dione at the glycine/NMDA receptor: from Ki. An excerpt: The binding affinities of quinoxaline-2,3-diones at NMDA receptor glycine sites also were estimated by electrophysiological assays with either cloned rat NMDA receptors expressed in Xenopus oocytes, or non-NMDA receptors expressed in oocytes by whole rat brain poly(A)^+ RNA. […] For NMDA receptors Ki values were approximated by averaging values at three subtype combinations (NR1A/NR2A, NR1A/NR2B, and NR1A/NR2C).

In another data set the test system is mice. The data set is described as follows: anticonvulsant activity in maximum electroshock seizure (MES) experiments in mice. Particulars: for ED50 / ED100: Mus musculus; for ED100 / ED50 (MES) / IV peak of action: Table IV. Format: in vivo, male Swiss/Webster mice. The method, then:
The seizure stimulus parameters were: 50 mA, 60 Hz, rectangular pulse, width 0.8 msec, duration 200 msec. Tonic hind limb extension observed after application of the electrical stimulus was recorded as occurrence of seizure. The drug was applied i.v. as an aqueous Tris (Tromethamine) solution.

The nature of data set [4]: penetration of the blood/brain barrier, access to the central nervous system. Type of data set: in vivo. Particulars: inferred from Ki and MES ED50.
For data set [5], the system named is non-NMDA glutamate receptors. As to conditions: literature; cited from earlier work.
Setting [6] is: read-out: Ki, affinity for the glycine/NMDA receptor.
[7] abbreviates: iv, Table III, i.v. injection, read-out: ED50 (MES).
[8] abbreviates: route not stated, read-out: ED50 as an anticonvulsant in the MES experiment in mice.
[9] abbreviates: Table II, footnote b, from binding assays, read-out: Ki.

Take `O=C(O)C1CC2CC(CP(=O)(O)O)CCC2CN1` (stereo not shown) [LY274614]: the “neuroprotective efficacy” value with neurons is “have neuroprotective efficacy”.

`O=C(O)c1cc2ccccc2[nH]1` [indole-2-carboxylic acid]: in [1], the “glycine site antagonism or affinity (words)” value is “relatively high receptor binding affinity in vitro”. Moreover, the “penetration of the blood/brain barrier (words)” value in data set [2] (literature) is on record as “cannot penetrate the blood/brain barrier”.

`O=c1[nH]c2cc([N+](=O)[O-])cc([N+](=O)[O-])c2[nH]c1=O` [5,7-dinitro-1,4-dihydroquinoxaline-2,3-dione]: in [1], the “glycine site antagonism or affinity (words)” value is on record as “potent-antagonist of the strychnine insensitive glycine receptor”. Further, in the data set with animals, the “in vivo activity” value is on record as “has anticonvulsant properties”. Also, the “penetration of the blood/brain barrier (words)” value in data set [2] (literature) is on record as “poor access to the central nervous system”.

In [3], `CCc1cc2[nH]c(=O)c(=O)[nH]c2cc1Cl` [H Cl Et H, 6-Chloro-7-ethyl-1,4-dihydroquinoxaline-2,3-dione] displayed a Ki of 730 nM.

Consider `CCCCOc1c(F)cc2nc(O)c(O)nc2c1[N+](=O)[O-]` [NO2 OBu-n F H, 7-Fluoro-6-(n-butoxy)-5-nitro-1,4-dihydroquinoxaline-2,3-dione], for which the Ki in [3] is 6500 nM.

As a reminder, the ED50 is the midpoint of the dose-response relation. As for `O=c1[nH]c2c(F)c(Cl)c(F)c([N+](=O)[O-])c2[nH]c1=O` [NO2 F Cl F, 7-Chloro-6,8-difluoro-5-nitro-1,4-dihydroquinoxaline-2,3-dione], at glycine binding site, the “times less active than 6,7-dichloro-5-nitro-1,4-dihydroquinoxaline-2,3-dione at the glycine/NMDA receptor” value is recorded as “about 50 times”. Further, on glycine binding site (setting [6]), the Ki is 170 nM. Further, in the data set on mice (setting [7]), the ED50 lay in the range of 2 to 3 mg/kg. Further, in the data set on mice (i.v.), the ED100 was determined as 5 mg/kg, the “ED50 (MES)” value was in the range of 2 to 3 mg/kg and the “IV peak of action” value was in the range of 2 to 5 min. The ED50 in the data set with mice (setting [8]) was 2 to 3 mg/kg. The “% protection after 60 min.” value with mice (i.v., 5 mg/kg) is on record as 50%. Besides, the “times better in crossing the blood brain barrier than 6,7-dichloro-5-nitro-1,4-dihydroquinoxaline-2,3-dione” value in [4] was “about 100 times”.

`Cc1c(Br)cc2nc(O)c(O)nc2c1[N+](=O)[O-]` [NO2 Me Br H, 7-Bromo-6-methyl-5-nitro-1,4-dihydroquinoxaline-2,3-dione] came in with a Ki in data set [3] of 40 nM.

With `NS(=O)(=O)c1cccc2c1c([N+](=O)[O-])cc1nc(O)c(O)nc12` [2,3-dihydroxy-6-nitro-7-sulfamoyl-benzo (F) quinoxaline], the “neuroprotective efficacy” value with neurons was “neuroprotective in cerebral ischemia models”. In addition, the “antagonism at kainate / AMPA / non-NMDA receptors” value in data set [5] is given as “AMPA selective”.

As to `CNC1(c2ccccc2Cl)CCCCC1=O` (stereo not shown) [ketamine], in the data set on neurons, the “neuroprotective efficacy” value was “have neuroprotective efficacy both in vitro and in vivo”.

The compound `Cc1c([N+](=O)[O-])c([N+](=O)[O-])c(Cl)c2[nH]c(=O)c(=O)[nH]c12` [Cl NO2 NO2 Me, 5-Chloro-6,7-dinitro-8-methyl-2,3-quinoxalinedione] came in with a Ki in data set [3] of 3800 nM.

As to `COc1c(Cl)cc2[nH]c(=O)c(=O)[nH]c2c1[N+](=O)[O-]` [NO2 OMe Cl H, 7-Chloro-6-methoxy-5-nitro-1,4-dihydroquinoxaline-2,3-dione], the Ki in data set [3] stood at 450 nM.

As for `O=c1[nH]c2cc(F)c(F)c([N+](=O)[O-])c2[nH]c1=O` [NO2 F F H, 6,7-Difluoro-5-nitro-1,4-dihydro-2,3-quinoxalinedione], the “times less active than 6,7-dichloro-5-nitro-1,4-dihydroquinoxaline-2,3-dione at the glycine/NMDA receptor” value at glycine binding site is “more than 20 times”. Further, the Ki on glycine binding site (setting [6]) was 87 nM. For the same compound, in the data set with mice (setting [7]), the 50% effective dose (ED50) is 0.7 to 0.8 mg/kg. For the same compound, in the data set on mice (i.v.), the ED100 came to 2.5 mg/kg, the “ED50 (MES)” value fell in the range of 0.7 to 0.8 mg/kg and the “IV peak of action” value amounted to 1 min. In addition, the median effective dose (ED50) with mice (setting [8]) was in the range of 0.7 to 0.8 mg/kg. The “% protection after 60 min.” value with mice (i.v., 2.5 mg/kg) was 0%. The “protection against MES after 60 min.” value with mice (i.v., after 60 min) was “no more protection was observed”. Also, the “times better in crossing the blood brain barrier than 6,7-dichloro-5-nitro-1,4-dihydroquinoxaline-2,3-dione” value in data set [4] is on record as “about 100 times”.

Compound `Cc1c(Cl)cc2nc(O)c(O)nc2c1N` [NH2 Me Cl H, 5-Amino-7-chloro-1,4-dihydro-6-methylquinoxaline-2,3-dione] came in with a Ki in data set [3] of 500 nM.

Turning to `COc1ccc2c(c1)[C@]13CCCC[C@@H]1[C@H](C2)N(C)CC3` [dextromethorphan], in the data set with neurons, the “neuroprotective efficacy” value is “have neuroprotective efficacy both in vitro and in vivo”.

In data set [3], `CCc1cc2[nH]c(=O)c(=O)[nH]c2cc1CC` [H Et Et H, 6,7-Diethyl-1,4-dihydroquinoxaline-2,3-dione] came in with a Ki of 800 nM.

With `NC1CCN(O)C1=O` (racemic) [HA-966], the “glycine site antagonism or affinity (words)” value in [1] was “partial agonist with only micromolar affinity for the glycine binding site”. Also, the “penetration of the blood/brain barrier (words)” value in data set [2] (literature) is on record as “sufficiently penetrates the blood/brain barrier”.

As to `O=C(O)[C@@H]1C[C@H](CP(=O)(O)O)CCN1` [CGS 19755], in the data set with neurons, the “neuroprotective efficacy” value is “have neuroprotective efficacy”.

On to `O=[N+]([O-])c1c(OCCCc2ccccc2)c(F)cc2nc(O)c(O)nc12` [NO2 O(CH2)3 Ph F H, 7-Fluoro-6(3-phenylpropoxy)-5-nitro-1,4-dihydroquinoxaline-2,3-dione], for which, in data set [3], the Ki is 6700 nM.

As for `[N-]=[N+]=Nc1ccc2[nH]c(=O)c(=O)[nH]c2c1` [H N3 H H, 6-azidol-1,4-dihydroquinoxaline-2,3-dione], the Ki in data set [3] (setting [9]) turned out to be 910 nM; at glycine binding site (Table I, read-out: Ki), 210 nM. For the same compound, the “binding to the glycine binding site” value at glycine binding site (Table I, compared with other 6-substituted derivatives) was “quite favorably binds”.

Compound `CCc1c(Cl)cc2nc(O)c(O)nc2c1[N+](=O)[O-]` [NO2 Et Cl H, 7-Chloro-6-ethyl-5-nitro-1,4-dihydroquinoxaline-2,3-dione] showed a Ki in data set [3] of 200 nM.

Regarding `O=C(O)c1cc(O)c2c(Cl)cc(Cl)cc2n1` [5,7-dichlorokynurenic acid], the “glycine site antagonism or affinity (words)” value in [1] is listed as “relatively high receptor binding affinity in vitro”. The “penetration of the blood/brain barrier (words)” value in data set [2] (in vivo) was “cannot penetrate the blood/brain barrier”.

For the compound `Cc1ccc2[nH]c(=O)c(=O)[nH]c2c1` [H Me H H, 6-Methyl-1,4-dihydro-2,3-quinoxalinedione], the Ki in data set [3] (setting [9]) stood at 9000 nM.

Regarding `c1ccc(C2(N3CCCCC3)CCCCC2)cc1` [PCP, phencyclidine], in the data set on neurons, the “neuroprotective efficacy” value was “have neuroprotective efficacy both in vitro and in vivo”.

For `CCc1cc2nc(O)c(O)nc2c([N+](=O)[O-])c1Cl` [NO2 Cl Et H, 6-Chloro-7-ethyl-5-nitro-1,4-dihydroquinoxaline-2,3-dione], the Ki in data set [3] turned out to be 40 nM.
